Test [1] relates to MPTP-lesioned C57BL/6 mice. Kind of test: DA and DOPAC levels in midbrain and striatum by HPLC-ED after MPTP lesion. The class given is in vivo. How it is done:
Neurochemical analyses via HPLC-ED were conducted as described before. Microdissected samples of the striatum (ST) and midbrain were homogenized in 300 and 400 µL of cold 0.6 M HClO4, respectively, using a motor-driven grinder (Z359971, Sigma-Aldrich, USA) and the homogenate was spun for 15 min at 12,000 rpm (+4 °C). The pellet was diluted in 1 mL of 0.1 M NaCl and used for protein quantitation by Bradford (Bio Rad, USA) according to the manufacturer’s protocol. The clear supernatant was diluted twice with pure water and used for assay of DA and […] (DOPAC) by HPLC on Luna C18(2) column (5 μm particle size, L × I.D. 75 × 4.6 mm, Phenomenex, Torrance, CA, USA) with electrochemical detection (750 mV, DECADE II™ Electrochemical Detector; Antec, The Netherlands). The standard mixes containing 1, 2, and 3 ng of DA and DOPAC were repeatedly assayed throughout the entire procedure and used to plot the calibration curves for each substance. The areas of peaks were estimated using LabSolution LG/GC software version 5.54 (Shimadzu Corporation, Japan) and calibrated against the calibrated curves for corresponding standards. The contents of DA and DOPAC were expressed nanogram (ng) per milligram (mg) of protein assayed by Bradford.

Test [2] relates to naïve primary midbrain dopamine neurons. Kind of test: Survival of naïve cultured dopamine neurons (TH-positive cell count). The class given is cell-based, mouse. How it is done: (§1) We developed a compound library containing 20 diol derivatives and screened them on cultured primary DA neurons (Supplementary Materials, Table S1). Compounds were taken at a dose of 0.1 and 1 μM (based on effective doses for the epoxydiol). Based on the screening results, we selected four compounds and tested them in a naïve and MPP^+-treated (1-methyl-4-phenylpyridinium (MPP^+), the neurotoxic metabolite of MPTP) DA culture at 1, 10, and 100 nM to select the compound with the lowest effective dose.
(§2) The survival of cultured mouse DA neurons was assessed as described before. Briefly, naïve or MPP^+ (dopaminergic selective neurotoxin)-challenged embryonic midbrain neurons were cultured in the presence or absence of a diol-like compound. The number of survived DA neurons was estimated after immunocytochemical staining with antibodies recognizing the key enzyme of dopamine synthesis—tyrosine hydroxylase.

In test [3] the test system is MPP^+-treated primary midbrain dopamine neurons. Kind of test: Survival of MPP+-challenged cultured dopamine neurons (TH-positive cell count). The class given is cell-based, mouse. On the procedure: as §1, §2
The next test deals with MPTP-treated mice. The arrangement: method as in PMID 31464415. Particulars: related compound; cited from earlier work.
In test [4] the test system is naïve primary midbrain dopamine neurons. More on the design: method as in PMID 31464415. Particulars: cultured DA neurons; cited from earlier work.
The mark [5] stands for this setting: 1 uM, compared to VEH-treated wells.
Setting [6] is: positive control, compared to VEH.

For the molecule `N[C@@H](Cc1ccc(O)c(O)c1)C(=O)O` [L-DOPA, reference compound], the “MPTP-induced reduction in DA level in the midbrain” value in test [1] is recorded as “tended to alleviate”.
As to `C=C(C)[C@@H]1CC=C(C)[C@@H](OC(C)=O)[C@@H]1OC(C)=O` [Substance 1], the inhibition at 1 µM in test [2] (Mus musculus, Neuron, 1 uM, compared to VEH-treated wells, read-out: Support effect / inhibition, Naïve dopamine neurons, 1 uM) fell in the range of 1 to 29%.
Consider `C#CC1(O)C(O)C(C)=CCC1C(=C)C` (stereo not drawn) [Substance 7], for which, in test [2] (setting [5]), the “Support effect / inhibition, Naïve dopamine neurons, 1 uM” value (shortened to “Support effect / inhibition … 1 uM”) is reported as “- (29-1% – -)”.
As for `C=CC1(O)C(O)C(C)=CCC1C(=C)C` (stereo not drawn) [Substance 8], the “Support effect / inhibition, MPP+-treated dopamine neurons, 1 nM” value in test [3] (1 nM, compared to VEH-treated wells) was 0 (0% – 0). The “Support effect / inhibition, MPP+-treated dopamine neurons, 10 nM” value in test [3] (10 nM, compared to VEH-treated wells) was 0 (0% – 0). Also, the “Support effect / inhibition, MPP+-treated dopamine neurons, 100 nM” value in test [3] (100 nM, compared to VEH-treated wells) is reported as 0 (0% – 0).
As to `C=C(CSc1ccc(Cl)cc1)C1CC2OC2(C)C(O)C1O` (stereo not drawn) [Substance 9], the “Support effect / inhibition … 1 uM” value in test [2] (setting [5]) was “- (29-1% – -)”.
As to `C=C(CSC(C)(C)C)C1CC2OC2(C)C(O)C1O` (stereo not drawn) [Substance 10], the “Support effect / inhibition … 1 uM” value in test [2] (setting [5]) is on record as “- (29-1% – -)”.
For the molecule `C=C(CSCC(C)C)C1CC2OC2(C)C(O)C1O` (stereo not drawn) [Substance 11], the “Support effect / inhibition … 1 uM” value in test [2] (setting [5]) is given as “- - (Inhibition 69-30% – - -)”.
On the same count and under the same terms, next, `C=C(CSCc1ccccc1)C1CC2OC2(C)C(O)C1O` (stereo not drawn) [Substance 13]: “- (29-1% – -)”.
On to `C=C(C)[C@@H]1C[C@H]2O[C@@]2(C)[C@@H](O)[C@@H]1O` [epoxydiol], for which the “antiparkinsonian activity in vivo (effective dose)” value in the test on MPTP-treated mice is reported as 20 mg/kg. Further, in test [4], the “effective concentration in survival assay for DA neurons” value was 100 nM and the “effective doses in survival assay of cultured dopamine neurons” value was 0.1 to 1 µM.

B1: GDNF: glial cell line-derived neurotrophic factor, positive control in the neuron survival assays (protein, UniProt P39905 78-211, looked up)
Glial cell line-derived …: SPDKQMAVLPRRERNRQAAAANPENSRGKGRRGQRGKNRGCVLTAIHLNVTDLGLGYETKEELIFRYCSGSCDAAETTYDKILKNLSRNRRLVSDKVGQACCRPIAFDDDLSFLDDNLVYHILRKHSAKRCGCI
For the molecule B1, in test [3] (setting [6]), the “survival of MPP+-treated primary midbrain dopamine neurons” value is “promotes the survival”. Moreover, the “survival of naïve primary midbrain dopamine neurons” value in test [2] (setting [6]) is listed as “promotes the survival”.

Values taken from publication PMC9738927, “A Newly Identified Monoterpenoid-Based Small Molecule Able to Support the Survival of Primary Cultured Dopamine Neurons and Alleviate MPTP-Induced Toxicity In Vivo” (Molecules, 2022).
